According to ChEMBL document CHEMBL1142640, “New natural product isolation and comparison of the secondary metabolite content of three distinct samples of the sea hare Aplysia dactylomela from tenerife” (J Nat Prod, 2000):
In brackets after ≈: the same amount, converted by molar mass. Activity calls are given as the source filed them. No cut-off for these calls is given here.

What was measured:
[1] = system: Mycotypha microspora; assay: Antifungal activity against Mycotypha microspora at 50 ug/disk; format: functional
[2] = system: Microbotryum violaceum; assay: Antifungal activity against Microbotryum violaceae at 50 ug/disk; format: functional
[3] = system: Escherichia coli; assay: Antibacterial activity against Escherichia coli at 50 ug/disk; format: functional
[4] = system: Fusarium oxysporum; assay: Antifungal activity against Fusarium oxysporum at 50 ug/disk; format: functional
[5] = system: Priestia megaterium; assay: Antibacterial activity against Bacillus megaterium at 50 ug/disk; format: functional
[6] = system: Aspergillus pseudoglaucus; assay: Antifungal activity against Eurotium repens at 50 ug/disk; format: functional
[7] = system: Artemia salina; assay: (§1) Toxicity in Artemia salina at 0.5 mg/mL after 48 hrs; format: organism-based; details: in vivo, 48 h
[8] = system: [Chlorella] fusca; assay: Antialgal activity against Chlorella fusca at 50 ug/disk; format: functional; details: Scenedesmus fuscus; for zone of inhibition at 50 µg/disc: read-out: IZ
[9] = system: KB; assay: Cytotoxicity against human KB cells; format: functional, cell-based
[10] = system: HeLa; assay: Cytotoxicity against human HeLa cells; format: functional, cell-based
[11] = Cytotoxicity against human HMO2 cells; format: functional, cell-based
[12] = system: ZR-75-1; assay: Cytotoxicity against human ZR-75-1 cells; format: functional, cell-based
[13] = system: Aspergillus pseudoglaucus; assay: Antifungal activity against Eurotium repens assessed as few colonies of test organism growing within inhibition zone at 50 ug/disk; format: functional; details: read-out: IZ
[14] = system: Mycotypha microspora; assay: Antifungal activity against Mycotypha microspora assessed as few colonies of test organism growing within inhibition zone at 50 ug/disk; format: functional; details: read-out: IZ
[15] = system: MCF7; assay: Cytotoxicity against human MCF7 cells; format: functional, cell-based
[16] = system: Lu1; assay: Cytotoxicity against human Lu1 cells; format: functional, cell-based
[17] = system: Caenorhabditis elegans; assay: Nematicidal activity against Caenorhabditis elegans; format: functional, organism-based
[18] = molecular target: Human immunodeficiency virus type 1 reverse transcriptase (Human immunodeficiency virus 1) (UniProt Q72547); assay: Inhibition of HIV1 reverse transcriptase
[19] = system: Microbotryum violaceum; assay: Antifungal activity against Microbotryum violaceae assessed as no colonies of test organism growing within inhibition zone at 50 ug/disk; format: functional; details: read-out: IZ
[20] = system: HepG2; assay: Cytotoxicity against human HepG2 cells; format: functional, cell-based
[21] = system: Priestia megaterium; assay: Antibacterial activity against Bacillus megaterium assessed as no colonies of test organism growing within inhibition zone at 50 ug/disk; format: functional; details: read-out: IZ
[22] = molecular target: Tyrosine-protein kinase Lck (Homo sapiens) (UniProt P06239); assay: Inhibition of p56lck
Sequence of Tyrosine-protein kinase Lck (Homo sapiens) (P06239 2-509 limits assumed): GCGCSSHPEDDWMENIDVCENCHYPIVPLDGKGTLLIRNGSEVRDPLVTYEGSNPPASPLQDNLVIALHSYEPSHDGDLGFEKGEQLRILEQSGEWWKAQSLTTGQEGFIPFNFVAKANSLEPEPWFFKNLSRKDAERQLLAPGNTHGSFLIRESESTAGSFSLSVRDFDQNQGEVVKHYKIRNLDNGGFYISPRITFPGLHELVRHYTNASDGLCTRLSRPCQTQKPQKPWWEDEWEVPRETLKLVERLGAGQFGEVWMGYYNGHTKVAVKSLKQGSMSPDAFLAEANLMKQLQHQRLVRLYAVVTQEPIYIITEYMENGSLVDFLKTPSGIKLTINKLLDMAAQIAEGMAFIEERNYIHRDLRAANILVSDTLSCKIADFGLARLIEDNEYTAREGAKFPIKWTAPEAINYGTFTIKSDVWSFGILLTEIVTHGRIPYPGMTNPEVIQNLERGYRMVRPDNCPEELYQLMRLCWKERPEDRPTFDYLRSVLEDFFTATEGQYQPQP

[23] = Toxicity in Artemia salina at 0.5 mg/mL after 24 hrs; format: organism-based; details: in vivo, read-out: Activity
[24] = Antibacterial activity against Escherichia coli assessed as few colonies of test organism growing within inhibition zone at 50 ug/disk; details: read-out: IZ
[25] = system: Microbotryum violaceum; assay: Antifungal activity against Microbotryum violaceae assessed as few colonies of test organism growing within inhibition zone at 50 ug/disk; format: functional; details: read-out: IZ
[26] = as §1; format: organism-based; details: in vivo, read-out: Activity
[27] = system: [Chlorella] fusca; assay: Antialgal activity against Chlorella fusca assessed as few colonies of test organism growing within inhibition zone at 50 ug/disk; format: functional; details: Scenedesmus fuscus; read-out: IZ
[28] = system: [Chlorella] fusca; assay: Antialgal activity against Chlorella fusca assessed as no colonies of test organism growing within inhibition zone at 50 ug/disk; format: functional; details: Scenedesmus fuscus; read-out: IZ

| SMILES | Activity [1] | Activity [2] | Activity [3] | Activity [4] | Activity [5] | Activity [6] | Activity [7] | Activity [8] | IC50 [9] | IC50 [12] | IC50 [16] | further results |
| --- | --- | --- | --- | --- | --- | --- | --- | --- | --- | --- | --- | --- |
| C=C[C@]1(C)CC[C@@H](Br)[C@](C)(CC[C@@H]2[C@@H](C)[C@]3(C)CC[C@@]2(C)O3)O1 [DACTYLOPYRANOID] | inactive | inactive | inactive | inactive | inactive | inactive | Not Active | inactive |  |  |  |  |
| Cc1cc([C@H]2CC[C@](C)(Cl)[C@@H](Br)C2)co1 [FUROCAESPITANE] | inactive | inactive | inactive | inactive | inactive | inactive | Not Active | inactive |  |  |  |  |
| CC1(C)C[C@@H](Br)C[C@](C)(O)[C@@]12C=C/C(=C/Br)CC2 |  |  |  |  |  |  |  | inactive | > 25 µg/mL | > 25 µg/mL | > 25 µg/mL | IC50 [10]: 4.5 µg/mL (≈ 11.9 µM); IC50 [11]: 17 µg/mL (≈ 45 µM); zone of inhibition at 50 µg/disc [13]: 2 mm; zone of inhibition at 50 µg/disc [14]: 1 mm; IC50 [15]: < 1 µg/mL; Activity [17]: Active; Activity [18]: inactive; zone of inhibition at 50 µg/disc [19]: 3 mm; IC50 [20]: < 1 µg/mL; zone of inhibition at 50 µg/disc [21]: 1 mm; Activity [22]: inactive; mortality at 24 h, 0.5 mg/mL [23]: 100% |
| C[C@@]1(Cl)C[C@@](C)(Br)[C@H](/C=C/Cl)C[C@@H]1Br |  |  |  |  |  |  |  | inactive | > 25 µg/mL | > 25 µg/mL | > 25 µg/mL | IC50 [10]: 1 µg/mL (≈ 2.74 µM); zone of inhibition at 50 µg/disc [13]: 1 mm; zone of inhibition at 50 µg/disc [24]: 1 mm; zone of inhibition at 50 µg/disc [25]: 1 mm; mortality at 48 h, 0.5 mg/mL [26]: 90% |
| C=C1C[C@H](O)[C@H](Br)C(C)(C)[C@@]12CC[C@](C)(Br)[C@@H](Cl)C2 |  |  |  |  | inactive |  |  |  |  |  |  | IC50 [10]: 10 µg/mL (≈ 24.1 µM); inhibition zone (IZ) [1]: inactive; inhibition zone (IZ) [2]: inactive; inhibition zone (IZ) [3]: inactive; inhibition zone (IZ) [4]: inactive; inhibition zone (IZ) [6]: inactive; inhibition zone (Toxicity) [7]: Not Active; inhibition zone (IZ) [8]: inactive |
| C=C1C[C@H](OC(C)=O)[C@H](Br)C(C)(C)[C@@]12CC[C@](C)(Br)[C@@H](Cl)C2 |  |  | inactive |  | inactive |  | Not Active | inactive | > 25 µg/mL | > 25 µg/mL | > 25 µg/mL | zone of inhibition at 50 µg/disc [13]: 1 mm |
| CC1=C([C@H]2CC[C@](C)(Cl)[C@@H](Br)C2)C[C@@H](Br)C(C)(C)O1 [LAUCAPYRANOID A] | inactive | inactive | inactive | inactive | inactive | inactive | Not Active | inactive |  |  |  |  |
| Clc1ccc(COC(Cn2ccnc2)c2ccc(Cl)cc2Cl)c(Cl)c1 (stereo not drawn) [MICONAZOLE] |  |  |  |  |  |  |  |  |  |  |  | zone of inhibition at 50 µg/disc ([1]; read-out: IZ): 5 mm; zone of inhibition at 50 µg/disc ([2]; read-out: IZ): 20 mm; zone of inhibition at 50 µg/disc ([3]; read-out: IZ): 1 mm; zone of inhibition at 50 µg/disc ([4]; read-out: IZ): 32 mm; zone of inhibition at 50 µg/disc ([5]; read-out: IZ): 10 mm; zone of inhibition at 50 µg/disc ([6]; read-out: IZ): 3 mm; zone of inhibition at 50 µg/disc [8]: 4 mm |
| CC1(C)O[C@](C)([C@H]2CC[C@](C)(Cl)[C@@H](Br)C2)[C@H](O)C[C@H]1Br [CAESPITOL] |  | inactive | inactive | inactive | inactive | inactive |  |  | > 25 µg/mL | > 25 µg/mL | > 25 µg/mL | IC50 [10]: 100 µg/mL (≈ 231 µM); Activity [17]: Active; zone of inhibition at 50 µg/disc [27]: 3 mm; Activity [18]: inactive; mortality at 48 h, 0.5 mg/mL [26]: 70%; Activity [22]: inactive |
| CCOC(=O)c1ccccc1C(=O)OCC [DIETHYL PHTHALATE] |  |  |  |  |  |  |  |  |  |  |  | zone of inhibition at 50 µg/disc [8]: 13 mm |
| C=CC(C)(O)CC[C@@H]1C(=C)CC[C@@H]2C(C)(C)[C@H](Br)CC[C@@]12C (stereo partly drawn) [ISOPINNATOL B] |  | inactive | inactive | inactive | inactive | inactive | Active | inactive | > 25 µg/mL | > 25 µg/mL | > 25 µg/mL |  |
| CC1(C)O[C@](C)([C@H]2CC[C@](C)(Cl)[C@@H](Br)C2)CC[C@H]1Br [CAESPITANE] |  | inactive | inactive | inactive | inactive | inactive |  |  | > 25 µg/mL | > 25 µg/mL | > 25 µg/mL | zone of inhibition at 50 µg/disc [27]: 1 mm; mortality at 48 h, 0.5 mg/mL [26]: 40% |
| C[C@](Cl)(/C=C/Br)[C@@H](Cl)/C=C/C(=C\Cl)C(Cl)Cl |  | inactive |  | inactive |  | inactive | Not Active |  | > 25 µg/mL | > 25 µg/mL | > 25 µg/mL | IC50 [11]: 1.1 µg/mL (≈ 2.84 µM); IC50 [15]: 1.5 µg/mL (≈ 3.87 µM); zone of inhibition at 50 µg/disc [24]: 2 mm; zone of inhibition at 50 µg/disc [28]: 1 mm; IC50 [20]: 1 µg/mL (≈ 2.58 µM) |
| CC(=O)O[C@@H]1C[C@@H](Br)C(C)(C)O[C@]1(C)[C@H]1CC[C@](C)(Cl)[C@@H](Br)C1 | inactive | inactive | inactive | inactive | inactive | inactive | Not Active | inactive |  |  |  |  |
| CC1(C)C=CC(=O)[C@@](C)([C@H]2CC[C@](C)(Cl)[C@@H](Br)C2)O1 [CAESSPITENONE] | inactive | inactive | inactive | inactive | inactive | inactive | Not Active | inactive |  |  |  |  |
| C=C[C@@](C)(O)CC[C@H]1[C@](C)(CC[C@H](Br)C(C)(C)Cl)[C@@H]2CC[C@@]1(C)O2 [DACTYLOMELOL] | inactive | inactive | inactive | inactive | inactive | inactive | Not Active | inactive |  |  |  |  |
| CC(=O)O[C@@H](C=C(C)C)C/C(C)=C1\CC[C@](C)(Br)[C@@H](Cl)C1 |  |  | inactive |  | inactive |  | Not Active | inactive | > 25 µg/mL | > 25 µg/mL | > 25 µg/mL | zone of inhibition at 50 µg/disc [13]: 2 mm; zone of inhibition at 50 µg/disc [25]: 1 mm |
